Test system: 941728-121-R-J1-PDC complex spheroid viability
Experiment: Anticancer human tumor 941728-121-R-J1-PDC patient-derived lung adenocarcinoma cell line growth inhibition [RAS]
Conditions: for IC50: curve of first compound; for viability, T/C: stronger effect = lower value
How it was run: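 Multi-cell-type spheroids: tumor cells plus HUVEC endothelial cells and mesenchymal stem cells. RAS-pathway inhibitors were combined with targeted agents, each dosed in half-log steps down from clinical Cmax, or from 10 microM when Cmax was unknown.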
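Note: spheroids exposed to compounds for 7 days before readout.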
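Throughout, for viability, T/C: 100% = DMSO vehicle control viability.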

IC50 (second compound 0.000949 µM): < 949 pM
IC50 (second compound 0.003 µM): < 949 pM
IC50 (second compound 0.00949 µM): < 949 pM
IC50 (second compound 0.03 µM): < 949 pM
IC50 (second compound 0.0949 µM): < 949 pM
IC50 (second compound 0.3 µM): < 949 pM
SMILES: CCc1c2c(nc3ccc(O)cc13)-c1cc3c(c(=O)n1C2)COC(=O)[C@]3(O)CC + CCn1c(-c2cccnc2C(C)OC)c2c3cc(ccc31)N1CCOC(CC(NC(=O)C(C(C)C)N(C)C(=O)C3(F)CCN(C(=O)C#CC(C)(C)N(C)C)CC3)C(=O)N3CCCC(N3)C(=O)OCC(C)(C)C2)C1
viability, T/C (second compound 0.000949 µM, first compound 0.000949 µM): 23.7%
viability, T/C (second compound 0.000949 µM, first compound 0.003 µM): 18.9%
viability, T/C (second compound 0.000949 µM, first compound 0.00949 µM): 14.2%
viability, T/C (second compound 0.000949 µM, first compound 0.03 µM): 17.5%
viability, T/C (second compound 0.000949 µM, first compound 0.0949 µM): 11.7%
viability, T/C (second compound 0.000949 µM, first compound 0.3 µM): 6.82%
viability, T/C (second compound 0.003 µM, first compound 0.000949 µM): 25.2%
viability, T/C (second compound 0.003 µM, first compound 0.003 µM): 21.1%
viability, T/C (second compound 0.003 µM, first compound 0.00949 µM): 14.8%
viability, T/C (second compound 0.003 µM, first compound 0.03 µM): 14.4%
viability, T/C (second compound 0.003 µM, first compound 0.0949 µM): 12.2%
viability, T/C (second compound 0.003 µM, first compound 0.3 µM): 7.12%
viability, T/C (second compound 0.00949 µM, first compound 0.000949 µM): 22.4%
viability, T/C (second compound 0.00949 µM, first compound 0.003 µM): 16.3%
viability, T/C (second compound 0.00949 µM, first compound 0.00949 µM): 17.1%
viability, T/C (second compound 0.00949 µM, first compound 0.03 µM): 13.5%
viability, T/C (second compound 0.00949 µM, first compound 0.0949 µM): 11.2%
viability, T/C (second compound 0.00949 µM, first compound 0.3 µM): 7.23%
viability, T/C (second compound 0.03 µM, first compound 0.000949 µM): 22.5%
viability, T/C (second compound 0.03 µM, first compound 0.003 µM): 18.8%
viability, T/C (second compound 0.03 µM, first compound 0.00949 µM): 18%
viability, T/C (second compound 0.03 µM, first compound 0.03 µM): 16.2%
viability, T/C (second compound 0.03 µM, first compound 0.0949 µM): 9.36%
viability, T/C (second compound 0.03 µM, first compound 0.3 µM): 8.84%
viability, T/C (second compound 0.0949 µM, first compound 0.000949 µM): 19.7%
viability, T/C (second compound 0.0949 µM, first compound 0.003 µM): 19.7%
viability, T/C (second compound 0.0949 µM, first compound 0.00949 µM): 17.2%
viability, T/C (second compound 0.0949 µM, first compound 0.03 µM): 15.3%
viability, T/C (second compound 0.0949 µM, first compound 0.0949 µM): 10.7%
viability, T/C (second compound 0.0949 µM, first compound 0.3 µM): 9.1%
viability, T/C (second compound 0.3 µM, first compound 0.000949 µM): 21.8%
viability, T/C (second compound 0.3 µM, first compound 0.003 µM): 18%
viability, T/C (second compound 0.3 µM, first compound 0.00949 µM): 16.4%
viability, T/C (second compound 0.3 µM, first compound 0.03 µM): 14.2%
viability, T/C (second compound 0.3 µM, first compound 0.0949 µM): 10.8%
viability, T/C (second compound 0.3 µM, first compound 0.3 µM): 7.87%

Reference: PubChem BioAssay AID2060896 (Molecular Pharmacology Branch, DTP, NCI, 2025)
